Melting point data for 15 compounds are collected here from US7528162B2, “4,5-dihydro-1H-pyrazole derivatives having CB1-antagonistic activity” (Solvay Pharmaceuticals, B.V., priority 2001, dated 2009).

For `CONC(=NS(=O)(=O)c1cccc(C)c1)N1CC(c2ccccc2)C(c2ccc(Cl)cc2)=N1` (stereo not drawn), the melting point lay in the range of 151 to 152 °C.
As for `CONC(=NS(=O)(=O)c1ccccc1C)N1CC(c2ccccc2)C(c2ccc(Cl)cc2)=N1` (stereo not drawn), the melting point lay within 145 to 146 °C.
`CONC(=NS(=O)(=O)c1cc(F)c(F)cc1F)N1CC(c2ccccc2)C(c2ccc(Cl)cc2)=N1` (stereo not drawn): the melting point lay within 160 to 162 °C.
In the case of `CONC(=NS(=O)(=O)c1ccc(Cl)cc1)N1CC(c2ccccc2)C(c2ccc(F)cc2)=N1` (stereo not drawn), the melting point was in the range of 201 to 203 °C.
Regarding `CONC(=NS(=O)(=O)c1ccc(Cl)cc1)N1CC(c2c(F)cccc2F)C(c2ccc(Cl)cc2)=N1` (stereo not drawn), the melting point lay in the range of 174 to 177 °C.
In turn, `O=S(=O)(N=C(NCCF)N1CC(c2cccc(F)c2)C(c2ccc(Cl)cc2)=N1)c1ccc(Cl)cc1` (stereo not drawn) displayed a melting point of 130 °C.
In turn, `CONC(=NS(=O)(=O)c1ccc(C(F)(F)F)cc1)N1CC(c2cccc(F)c2)C(c2ccc(Cl)cc2)=N1` (stereo not drawn) returned a melting point above 260 °C.
As to `CONC(=NS(=O)(=O)c1ccc(C(F)(F)F)cc1)N1CC(c2ccccc2F)C(c2ccc(Cl)cc2)=N1` (stereo not drawn), the melting point was 147 to 149 °C.
As to `O=S(=O)(N=C(NN1CCCCC1)N1CC(c2ccccc2)C(c2ccc(Cl)cc2)=N1)c1ccc(Cl)cc1` (stereo not drawn) [Example 1, 3-(4-Chlorophenyl)-N′-((4-chlorophenyl)sulfonyl)-N-(piperidin-1-yl)-4-phenyl-4,5-dihydro-1H-pyrazole-1-carboxamidine], the melting point was 213 to 214 °C.
For `CONC(=NS(=O)(=O)c1ccc(Cl)cc1)N1CC(c2ccccc2)C(c2ccc(Cl)s2)=N1` (stereo not drawn) [Example 47, 3-(5-Chlorothien-2-yl)-N′-((4-chlorophenyl)sulfonyl)-N-methoxy-4-phenyl-4,5-dihydro-1H-pyrazole-1-carboxamidine], the melting point was in the range of 180 to 181 °C.
For `CONC(=NS(=O)(=O)c1ccc(Cl)cc1)N1CC(c2cccc(C(F)(F)F)c2)C(c2ccc(Cl)cc2)=N1` (stereo not drawn) [Example 49, 3-(4-Chlorophenyl)-N′-((4-chlorophenyl)sulfonyl)-N-methoxy-4-(3-(trifluoromethyl)phenyl)-4,5-dihydro-1H-pyrazole-1-carboxamidine] the value was 80 to 83 °C.
Take `O=S(=O)(N=C(NCCF)N1CC(c2c(F)cccc2F)C(c2ccc(Cl)cc2)=N1)c1ccc(Cl)cc1` (stereo not drawn) [Example 51, 3-(4-Chlorophenyl)-N′-((4-chlorophenyl)sulfonyl)-N-(2-fluoroethyl)-4-(2,6-difluorophenyl)-4,5-dihydro-1H-pyrazole-1-carboxamidine]: the melting point was 153 to 155 °C.
For `O=S(=O)(N=C(NCCF)N1CC(c2cccc(F)c2)C(c2ccc(Cl)cc2)=N1)c1ccc(C(F)(F)F)cc1` (stereo not drawn) [Example 53, 3-(4-Chlorophenyl)-N-(2-fluoroethyl)-4-(3-fluorophenyl)-N′-((4-(trifluoromethyl)phenyl)sulfonyl)-4,5-dihydro-1H-pyrazole-1-carboxamidine] the value was 155 °C; for `CONC(=NS(=O)(=O)c1ccc(Cl)cc1)N1CC(c2ccccc2F)C(c2ccc(Cl)cc2)=N1` (stereo not drawn) [Example 56, 3-(4-Chlorophenyl)-N′-((4-chlorophenyl)sulfonyl)-4-(2-fluorophenyl)-N-(methoxy)-4,5-dihydro-1H-pyrazole-1-carboxamidine], 162 to 164 °C; for `CN1CCN(C(=NS(=O)(=O)c2ccc(Cl)cc2)N2CC(c3cccc(C(F)(F)F)c3)C(c3ccc(Cl)cc3)=N2)CC1` (stereo not drawn) [Example 86, N-[(3-(4-chlorophenyl)-4-(3-(trifluoromethyl)phenyl)-4,5-dihydro-1H-pyrazol-1-yl)(4-methylpiperazin-1-yl)methylene]-4-chlorobenzenesulfonamide], 97 to 100 °C.
